Kd data for one compound are collected here from article PMC8670039, “Flavonoids kaempferol and quercetin are nuclear receptor 4A1 (NR4A1, Nur77) ligands and inhibit rhabdomyosarcoma cell and tumor growth” (Journal of Experimental & Clinical Cancer Research : CR, 2021).

The term pKd denotes the negative decadic logarithm of the Kd, by convention in mol/L.

The target of the assay is nuclear receptor 4A1 (NR4A1, Nur77) (Homo sapiens, UniProt P22736). Description: Trp fluorescence quenching direct binding; also bis-ANS competitive displacement (Ki […]).
Chain of nuclear receptor 4A1 (NR4A1, Nur77) (P22736 351-598 limits assumed): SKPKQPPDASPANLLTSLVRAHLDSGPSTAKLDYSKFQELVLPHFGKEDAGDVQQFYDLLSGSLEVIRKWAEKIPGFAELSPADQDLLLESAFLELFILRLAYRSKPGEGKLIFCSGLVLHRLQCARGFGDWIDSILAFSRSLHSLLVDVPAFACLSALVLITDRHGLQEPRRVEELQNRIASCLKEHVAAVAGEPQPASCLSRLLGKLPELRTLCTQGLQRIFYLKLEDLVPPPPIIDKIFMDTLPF

pKd: −log10 of the molar value.

In turn, `O=c1c(O)c(-c2ccc(O)c(O)c2)oc2cc(O)cc(O)c12` [Q, quercetin] gave a pKd of 6.03.
